In patent publication US8097628B2, “Compounds” (Glaxo Group Limited, priority 2008, dated 2012):
≈ marks a conversion by molar mass, not a printed value. Where a name gives a salt, the structure may show the parent alone.

test system: Mycobacterium tuberculosis H37Rv; experiment: Mycobacterium tuberculosis H37Rv Inhibition Assay; format: cell-based; conditions: ATCC 25618 / H37Rv, H37Rv strain (ATCC25618), Middlebrook 7H9, resazurin fluorescence, read-out: MtB MIC

Question: With `Cc1ccc(CNC2CCN(CC3Cn4c(=O)ccc5ncc(=O)n3c54)CC2)cc1[N+](=O)[O-]` (stereo not drawn) [Example 23, 2-[(4-{[(4-methyl-3-nitrophenyl)methyl]amino}-1-piperidinyl)methyl]-1,2-dihydro-3H,8H-2a,5,8a-triazaacenaphthylene-3,8-dione] as the compound, how does the MIC read?
Answer: 0.036 µg/mL (≈ 0.0799 µM)

Question: Which MIC does the source give for `Cc1cc(CNC2CCN(CC3Cn4c(=O)ccc5ncc(=O)n3c54)CC2)sc1Br` (stereo not drawn) [Example 24, 2-[(4-{[(5-bromo-4-methyl-2-thienyl)methyl]amino}-1-piperidinyl)methyl]-1,2-dihydro-3H,8H-2a,5,8a-triazaacenaphthylene-3,8-dione] here?
Answer: 0.077 µg/mL (≈ 0.157 µM)

Question: With `Cc1ccc(CNC2CCN(CC3Cn4c(=O)ccc5ncc(=O)n3c54)CC2)cc1C` (stereo not drawn) [Example 25, 2-[(4-{[(3,4-dimethylphenyl)methyl]amino}-1-piperidinyl)methyl]-1,2-dihydro-3H,8H-2a,5,8a-triazaacenaphthylene-3,8-dione] as the compound, how does the MIC read?
Answer: 0.262 µg/mL (≈ 0.625 µM)

Question: `Cc1ncc(CNC2CCN(CC3Cn4c(=O)ccc5ncc(=O)n3c54)CC2)cc1Cl` (stereo not drawn) [Example 26, 2-[(4-{[(5-chloro-6-methyl-3-pyridinyl)methyl]amino}-1-piperidinyl)methyl]-1,2-dihydro-3H,8H-2a,5,8a-triazaacenaphthylene-3,8-dione] was tested. Which MIC did it give?
Answer: 0.069 µg/mL (≈ 0.156 µM)

Question: For `O=c1ccc2ncc(=O)n3c2n1CC3CN1CCC(NCc2ccc(OC(F)(F)F)cc2)CC1` (stereo not drawn) [Example 27, 2-({4-[({4-[(trifluoromethyl)oxy]phenyl}methyl)amino]-1-piperidinyl}methyl)-1,2-dihydro-3H,8H-2a,5,8a-triazaacenaphthylene-3,8-dione], which MIC is on record?
Answer: 2.38 µg/mL (≈ 5 µM)

Question: With `O=c1ccc2ncc(=O)n3c2n1CC3CN1CCC(NCc2ccc(C(F)(F)F)cc2)CC1` (stereo not drawn) [Example 28, 2-{[4-({[4-(trifluoromethyl)phenyl]methyl}amino)-1-piperidinyl]methyl}-1,2-dihydro-3H,8H-2a,5,8a-triazaacenaphthylene-3,8-dione] as the compound, how does the MIC read?
Answer: 0.144 µg/mL (≈ 0.313 µM)

Question: Which MIC does the source give for `O=c1ccc2ncc(=O)n3c2n1CC3CN1CCC(NCc2ccc(Br)cc2)CC1` (stereo not drawn) [Example 29, 2-[(4-{[(4-bromophenyl)methyl]amino}-1-piperidinyl)methyl]-1,2-dihydro-3H,8H-2a,5,8a-triazaacenaphthylene-3,8-dione] here?
Answer: 0.147 µg/mL (≈ 0.313 µM)

Question: Which MIC does the source give for `Cl.O=c1ccc2ccc(=O)n3c2n1C[C@H]3CN1CCC(NCc2ccc(Cl)c(Cl)c2)CC1` [Example 31, (1R)-1-[(4-{[(3,4-dichlorophenyl)methyl]amino}-1-piperidinyl)methyl]-1,2-dihydro-4H,9H-imidazo[1,2,3-ij]-1,8-naphthyridine-4,9-dione hydrochloride] here?
Answer: 0.019 µg/mL

Question: With `Cc1cc(CNC2CCN(CC3Cn4c(=O)ccc5ncc(=O)n3c54)CC2)cnc1F` (stereo not drawn) [Example 33, 2-[(4-{[(6-fluoro-5-methyl-3-pyridinyl)methyl]amino}-1-piperidinyl)methyl]-1,2-dihydro-3H,8H-2a,5,8a-triazaacenaphthylene-3,8-dione] as the compound, how does the MIC read?
Answer: 0.531 µg/mL (≈ 1.25 µM)

Question: How did the MIC turn out when `Cc1cc(CNC2CCN(CC3Cn4c(=O)ccc5ncc(=O)n3c54)CC2)ccc1Cl` (stereo not drawn) [Example 34, 2-[(4-{[(4-chloro-3-methylphenyl)methyl]amino}-1-piperidinyl)methyl]-1,2-dihydro-3H,8H,2a,5,8a-triazaacenaphthylene-3,8-dione] was run?
Answer: 0.069 µg/mL (≈ 0.157 µM)

Question: `O=c1ccc2ncc(=O)n3c2n1CC3CN1CCC(NCc2cc(Br)cs2)CC1` (stereo not drawn) [Example 35, 2-[(4-{[(4-bromo-2-thienyl)methyl]amino}-1-piperidinyl)methyl]-1,2-dihydro-3H,8H-2a,5,8a-triazaacenaphthylene-3,8-dione] was tested. Which MIC did it give?
Answer: 1.19 µg/mL (≈ 2.5 µM)

Question: `Cl.O=c1ccc2ncc(=O)n3c2n1CC3CN1CCC(NCc2ccc(Cl)c(Cl)c2)CC1` (stereo not drawn) [Example 36, 2-[(4-{[(3,4-dichlorophenyl)methyl]amino}-1-piperidinyl)methyl]-1,2-dihydro-3H,8H-2a,5,8a-triazaacenaphthylene-3,8-dione] was tested. Which MIC did it give?
Answer: 0.015 µg/mL

Question: Which MIC does the source give for `O=c1ccc2ncc(=O)n3c2n1CC3CN1CCC(NCc2cnc(Cl)s2)CC1` (stereo not drawn) [Example 37, 2-[(4-{[(2-chloro-1,3-thiazol-5-yl)methyl]amino}-1-piperidinyl)methyl]-1,2-dihydro-3H,8H-2a,5,8a-triazaacenaphthylene-3,8-dione] here?
Answer: 2.17 µg/mL (≈ 5 µM)

Question: `O=c1ccc2ncc(=O)n3c2n1CC3CN1CCC(NCc2ccc([N+](=O)[O-])cc2)CC1` (stereo not drawn) [Example 38, 2-[(4-{[(4-nitrophenyl)methyl]amino}-1-piperidinyl)methyl]-1,2-dihydro-3H,8H-2a,5,8a-triazaacenaphthylene-3,8-dione] was tested. Which MIC did it give?
Answer: 0.273 µg/mL (≈ 0.625 µM)

Question: With `COc1ccc(CNC2CCN(CC3Cn4c(=O)ccc5ncc(=O)n3c54)CC2)cc1Cl` (stereo not drawn) [Example 39, 2-{[4-({[3-chloro-4-(methyloxy)phenyl]methyl}amino)-1-piperidinyl]methyl}-1,2-dihydro-3H,8H-2a,5,8a-triazaacenaphthylene-3,8-dione] as the compound, how does the MIC read?
Answer: 1.14 µg/mL (≈ 2.5 µM)

Question: With `O=c1ccc2ncc(=O)n3c2n1CC3CN1CCC(NCc2ccc(Br)cn2)CC1` (stereo not drawn) [Example 40, 2-[(4-{[(5-bromo-2-pyridinyl)methyl]amino}-1-piperidinyl)methyl]-1,2-dihydro-3H,8H-2a,5,8a-triazaacenaphthylene-3,8-dione] as the compound, how does the MIC read?
Answer: 1.18 µg/mL (≈ 2.5 µM)

Question: For `O=c1ccc2ncc(=O)n3c2n1CC3CN1CCC(NCc2cncc(Br)c2)CC1` (stereo not drawn) [Example 41, 2-[(4-{[(5-bromo-3-pyridinyl)methyl]amino}-1-piperidinyl)methyl]-1,2-dihydro-3H,8H-2a,5,8a-triazaacenaphthylene-3,8-dione], which MIC is on record?
Answer: 0.884 µg/mL (≈ 1.88 µM)

Question: With `O=c1ccc2ncc(=O)n3c2n1CC3CN1CCC(NCc2cncc(Cl)c2)CC1` (stereo not drawn) [Example 42, 2-[(4-{[(5-chloro-3-pyridinyl)methyl]amino}-1-piperidinyl)methyl]-1,2-dihydro-3H,8H-2a,5,8a-triazaacenaphthylene-3,8-dione] as the compound, how does the MIC read?
Answer: 1.07 µg/mL (≈ 2.5 µM)

Question: `Cc1ccc(CNC2CCN(CC3Cn4c(=O)ccc5ncc(=O)n3c54)CC2)cc1F` (stereo not drawn) [Example 43, 2-[(4-{[(3-fluoro-4-methylphenyl)methyl]amino}-1-piperidinyl)methyl]-1,2-dihydro-3H,8H-2a,5,8a-triazaacenaphthylene-3,8-dione] was tested. Which MIC did it give?
Answer: 0.066 µg/mL (≈ 0.156 µM)

Question: Which MIC does the source give for `O=c1ccc2ncc(=O)n3c2n1CC3CN1CCC(NCc2ccc(F)c(F)c2)CC1` (stereo not drawn) [Example 44, 2-[(4-{[(3,4-difluorophenyl)methyl]amino}-1-piperidinyl)methyl]-1,2-dihydro-3H,8H-2a,5,8a-triazaacenaphthylene-3,8-dione] here?
Answer: 0.267 µg/mL (≈ 0.625 µM)

Question: Which MIC does the source give for `Cl.O=c1ccc2ncc(=O)n3c2n1C[C@H]3CN1CCC(NCc2ccc(C(F)(F)F)nc2)CC1` [Example 46, (2R)-2-{[4-({[6-(trifluoromethyl)-3-pyridinyl]methyl}amino)-1-piperidinyl]methyl}-1,2-dihydro-3H,8H-2a,5,8a-triazaacenaphthylene-3,8-dione hydrochloride] here?
Answer: 0.078 µg/mL

Question: Which MIC does the source give for `O=c1ccc2ncc(=O)n3c2n1C[C@@H]3CN1CCC(NCc2ccc(Cl)c(Cl)c2)CC1` [Example 47, (2S)-2-[(4-{[(3,4-dichlorophenyl)methyl]amino}-1-piperidinyl)methyl]-1,2-dihydro-3H,8H-2a,5,8a-triazaacenaphthylene-3,8-dione] here?
Answer: 0.072 µg/mL (≈ 0.156 µM)

Question: With `O=c1ccc2ncc(=O)n3c2n1C[C@@H]3CN1CCC(NCc2ccc(C(F)(F)F)nc2)CC1` [Example 48, (2S)-2-{[4-({[6-(trifluoromethyl)-3-pyridinyl]methyl}amino)-1-piperidinyl]methyl}-1,2-dihydro-3H,8H-2a,5,8a-triazaacenaphthylene-3,8-dione] as the compound, how does the MIC read?
Answer: 2.3 µg/mL (≈ 5 µM)

Question: Which MIC does the source give for `N#Cc1ncc(CNC2CCN(C[C@@H]3Cn4c(=O)ccc5ccc(=O)n3c54)CC2)cc1Cl` [Example 49, 3-chloro-5-{[(1-{[(1R)-4,9-dioxo-1,2-dihydro-4H,9H-imidazo[1,2,3-ij]-1,8-naphthyridin-1-yl]methyl}-4-piperidinyl)amino]methyl}-2-pyridinecarbonitrile] here?
Answer: 0.07 µg/mL (≈ 0.155 µM)

Question: Which MIC does the source give for `Cl.N#Cc1ncc(CNC2CCN(C[C@@H]3Cn4c(=O)ccc5ccc(=O)n3c54)CC2)cc1Cl` [Example 50, 3-chloro-5-{[(1-{[(1R)-4,9-dioxo-1,2-dihydro-4H,9H-imidazo[1,2,3-ij]-1,8-naphthyridin-1-yl]methyl}-4-piperidinyl)amino]methyl}-2-pyridinecarbonitrile dihydrochloride] here?
Answer: 0.082 µg/mL

Question: For `Cc1ncc(CNC2CCN(CC3Cn4c(=O)ccc5ncc(=O)n3c54)CC2)cc1F` (stereo not drawn) [Example 52, 2-[(4-{[(5-fluoro-6-methyl-3-pyridinyl)methyl]amino}-1-piperidinyl)methyl]-1,2-dihydro-3H,8H-2a,5,8a-triazaacenaphthylene-3,8-dione], which MIC is on record?
Answer: > 2.12 µg/mL

Question: For `Cc1ncc(CNC2CCN(C[C@H]3Cn4c(=O)ccc5ncc(=O)n3c54)CC2)cc1Cl` [Example 53, (2S)-2-[(4-{[(5-chloro-6-methyl-3-pyridinyl)methyl]amino}-1-piperidinyl)methyl]-1,2-dihydro-3H,8H-2a,5,8a-triazaacenaphthylene-3,8-dione], which MIC is on record?
Answer: 0.83 µg/mL (≈ 1.88 µM)

Question: How did the MIC turn out when `CCc1ncc(CNC2CCN(C[C@@H]3Cn4c(=O)ccc5ccc(=O)n3c54)CC2)cc1F` [Example 54, (1R)-1-[(4-{[(6-ethyl-5-fluoro-3-pyridinyl)methyl]amino}-1-piperidinyl)methyl]-1,2-dihydro-4H,9H-imidazo[1,2,3-ij]-1,8-naphthyridine-4,9-dione] was run?
Answer: 2.19 µg/mL (≈ 5 µM)

same assay, conditions: ATCC 25618 / H37Rv, read-out: MtB MIC

Question: How did the MIC turn out when `Cc1ncc(CNC2CCN(C[C@@H]3Cn4c(=O)ccc5ncc(=O)n3c54)CC2)cc1Br` [Example 51, (2R)-2-[(4-{[(5-bromo-6-methyl-3-pyridinyl)methyl]amino}-1-piperidinyl)methyl]-1,2-dihydro-3H,8H-2a,5,8a-triazaacenaphthylene-3,8-dione hydrochloride] was run?
Answer: 0.015 µg/mL

Question: How did the MIC turn out when `Cc1ncc(CNC2CCN(C[C@@H]3Cn4c(=O)cnc5ccc(=O)n3c54)CC2)cc1Br` [Example 55, (1R)-1-[(4-{[(5-bromo-6-methyl-3-pyridinyl)methyl]amino}-1-piperidinyl)methyl]-1,2-dihydro-3H,8H-2a,5,8a-triazaacenaphthylene-3,8-dione hydrochloride] was run?
Answer: 0.04 µg/mL

same assay, conditions: H37Rv inhibition assay, read-out: MIC value

Question: How did the MIC turn out when `O=c1ccc2ncc(=O)n3c2n1CC3CN1CCC(NCc2ccc(OC(F)(F)F)cc2)CC1` (stereo not drawn) [Example 27, 2-({4-[({4-[(trifluoromethyl)oxy]phenyl}methyl)amino]-1-piperidinyl}methyl)-1,2-dihydro-3H,8H-2a,5,8a-triazaacenaphthylene-3,8-dione] was run?
Answer: > 1 µg/mL

Question: Which MIC does the source give for `O=c1ccc2ncc(=O)n3c2n1CC3CN1CCC(NCc2cc(Br)cs2)CC1` (stereo not drawn) [Example 35, 2-[(4-{[(4-bromo-2-thienyl)methyl]amino}-1-piperidinyl)methyl]-1,2-dihydro-3H,8H-2a,5,8a-triazaacenaphthylene-3,8-dione] here?
Answer: > 1 µg/mL

Question: For `COc1ccc(CNC2CCN(CC3Cn4c(=O)ccc5ncc(=O)n3c54)CC2)cc1Cl` (stereo not drawn) [Example 39, 2-{[4-({[3-chloro-4-(methyloxy)phenyl]methyl}amino)-1-piperidinyl]methyl}-1,2-dihydro-3H,8H-2a,5,8a-triazaacenaphthylene-3,8-dione], which MIC is on record?
Answer: > 1 µg/mL

Question: With `O=c1ccc2ncc(=O)n3c2n1CC3CN1CCC(NCc2ccc(Br)cn2)CC1` (stereo not drawn) [Example 40, 2-[(4-{[(5-bromo-2-pyridinyl)methyl]amino}-1-piperidinyl)methyl]-1,2-dihydro-3H,8H-2a,5,8a-triazaacenaphthylene-3,8-dione] as the compound, how does the MIC read?
Answer: > 1 µg/mL

Question: `O=c1ccc2ncc(=O)n3c2n1C[C@@H]3CN1CCC(NCc2ccc(C(F)(F)F)nc2)CC1` [Example 48, (2S)-2-{[4-({[6-(trifluoromethyl)-3-pyridinyl]methyl}amino)-1-piperidinyl]methyl}-1,2-dihydro-3H,8H-2a,5,8a-triazaacenaphthylene-3,8-dione] was tested. Which MIC did it give?
Answer: > 1 µg/mL

Question: For `Cc1ncc(CNC2CCN(CC3Cn4c(=O)ccc5ncc(=O)n3c54)CC2)cc1F` (stereo not drawn) [Example 52, 2-[(4-{[(5-fluoro-6-methyl-3-pyridinyl)methyl]amino}-1-piperidinyl)methyl]-1,2-dihydro-3H,8H-2a,5,8a-triazaacenaphthylene-3,8-dione], which MIC is on record?
Answer: > 1 µg/mL
